{"source": "paper PMC12560758", "about": "“YsxC is a placeholder for ribosomal protein uL2 during 50S ribosomal subunit assembly” (Nucleic Acids Research, 2025)", "target": "T1, YsxC (Bacillus subtilis, UniProt P38424)", "T1 construct": "gene engB; full-length YsxC, 22 kDa, N-terminal His6 tag (pET15b-ysxC) cleaved by thrombin, expressed in E. coli BL21(DE3)", "T1 sequence (P38424 whole entry)": "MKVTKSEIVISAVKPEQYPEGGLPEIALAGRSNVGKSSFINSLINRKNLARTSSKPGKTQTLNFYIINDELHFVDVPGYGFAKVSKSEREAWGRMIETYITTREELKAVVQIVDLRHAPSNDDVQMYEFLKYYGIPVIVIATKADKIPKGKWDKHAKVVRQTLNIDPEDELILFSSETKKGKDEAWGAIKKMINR", "assay": "cryo-EM structure of the complex on the […].5S(YsxC) particle", "type": "binding", "details": "2 mM GMPPNP, 15 mM MgCl2, 50 mM NH4Cl, pH 7.5, 37 °C; nucleotide site; non-hydrolyzable GTP analogue"}
{"compound": "Nc1nc2c(ncn2[C@@H]2O[C@H](COP(=O)(O)OP(=O)(O)NP(=O)(O)O)[C@@H](O)[C@H]2O)c(=O)[nH]1", "note": "[GMPPNP]", "values": [{"measurement": "cryo-EM structure of the complex on the 44.5S(YsxC) particle", "result": "the density corresponding to the GMPPNP nucleotide (colored in blue), are indicated"}]}
